The source of these data is US20260265233A1, “BENZOTHIOPHENE DERIVATIVES AS RXFP1 AGONISTS” (BRISTOL-MYERS SQUIBB COMPANY, priority 2021, published 2026).

In the assay the target is T1, human RXFP1 (Homo sapiens, UniProt Q9HBX9).
T1 construct: expressed in transfected cells
T1 sequence (Q9HBX9 1-757): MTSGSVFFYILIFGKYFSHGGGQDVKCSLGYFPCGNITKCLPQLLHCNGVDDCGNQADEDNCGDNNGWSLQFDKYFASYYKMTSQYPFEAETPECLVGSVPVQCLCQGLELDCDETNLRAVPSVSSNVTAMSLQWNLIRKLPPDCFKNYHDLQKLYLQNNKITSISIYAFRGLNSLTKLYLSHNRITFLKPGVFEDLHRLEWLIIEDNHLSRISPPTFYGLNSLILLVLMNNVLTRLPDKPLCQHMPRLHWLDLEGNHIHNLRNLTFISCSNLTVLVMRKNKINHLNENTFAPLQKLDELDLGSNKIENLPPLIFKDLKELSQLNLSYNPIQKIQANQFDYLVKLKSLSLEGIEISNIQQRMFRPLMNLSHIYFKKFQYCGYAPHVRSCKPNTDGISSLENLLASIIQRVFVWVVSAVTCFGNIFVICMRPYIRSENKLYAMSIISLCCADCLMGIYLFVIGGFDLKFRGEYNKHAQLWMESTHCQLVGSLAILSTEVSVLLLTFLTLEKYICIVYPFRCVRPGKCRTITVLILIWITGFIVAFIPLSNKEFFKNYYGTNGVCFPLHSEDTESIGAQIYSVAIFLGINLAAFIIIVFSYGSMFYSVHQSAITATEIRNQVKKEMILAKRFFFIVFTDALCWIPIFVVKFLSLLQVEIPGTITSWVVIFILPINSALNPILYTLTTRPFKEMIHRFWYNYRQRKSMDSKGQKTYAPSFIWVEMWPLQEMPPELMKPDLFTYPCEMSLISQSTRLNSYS
Briefly: hRXFP1 HEK293 cAMP assay (HTRF). The conditions noted are these: HEK293 cells stably expressing human RXFP1; 30 min at rt; intracellular cAMP by HTRF. The class given is cell-based. In a few lines: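 HEK293 cells stably expressing human RXFP1 treated 30 min at rt with compound (0.010 nM to 50 μM, 2% DMSO) in HBSS/HEPES buffer with 0.5 mM IBMX. Intracellular cAMP measured by HTRF (665/590 nm ratio) against a cAMP standard curve; potency fitted by 4-parameter logistic.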
For orientation: EC50 means the midpoint of the concentration-response curve. High values mean lower potency in that assay, low ones higher potency in that assay. With `COc1ccc(C2=NOC(C)(CO)C2)cc1C(=O)Nc1c(C(=O)Nc2ccc(F)c(C(F)(F)F)c2)sc2cc(C(F)(F)F)ccc12` (single isomer, unassigned) [Example 254, N-(4-fluoro-3-(trifluoromethyl)phenyl)-3-(5-(5-(hydroxymethyl)-5-methyl-4,5-dihydroisoxazol-3-yl)-2-methoxy-benzamido)-6-(trifluoromethyl) benzo[b] thiophene-2-carboxamide], the EC50 came out at 1020 nM. In other words, the single-digit micromolar range.
Take `COc1ncc(N2CC3(C2)CS(=O)(=O)C3)cc1C(=O)Nc1c(C(=O)Nc2ccc(F)c(C(F)(F)F)c2)sc2cc(C(F)(F)F)ccc12` [Example 234, 5-(2,2-dioxido-2-thia-6-azaspiro[3.3]heptan-6-yl)-N-(2-((4-fluoro-3-(trifluoromethyl)phenyl)carbamoyl)-6-(trifluoromethyl)benzo[b]thiophen-3-yl)-2-methoxy-nicotinamide]: a half-maximal response (EC50) required 1340 nM.
In the case of `COc1ccc(/C=C\C(=O)O)cc1C(=O)Nc1c(C(=O)Nc2ccc(F)c(C(F)(F)F)c2)sc2cc(C(F)(F)F)ccc12` [Example 45, (Z)-3-(3-((2-((4-fluoro-3-(trifluoromethyl)phenyl)carbamoyl)-6-(trifluoromethyl)benzo[b]thiophen-3-yl)carbamoyl)-4-methoxyphenyl) acrylic acid], the midpoint of the response, the EC50, lay at 975 nM.
The result for `COc1cc(F)c(C(=O)N2CCC(O)CC2)cc1C(=O)Nc1c(C(=O)Nc2ccc(F)c(C(F)(F)F)c2)sc2cc(C(F)(F)F)ccc12` [Example 184, N-(4-fluoro-3-(trifluoromethyl)phenyl)-3-(4-fluoro-5-(4-hydroxypiperidine-1-carbonyl)-2-methoxy-benzamido)-6-(trifluoromethyl) benzo[b] thiophene-2-carboxamide] reads 349 nM; that for `COc1ncc(C(=O)N2CC3(COC3)C2)cc1C(=O)Nc1c(C(=O)Nc2ccc(F)c(C(F)(F)F)c2)sc2cc(C(F)(F)F)ccc12` [Example 172, N-(2-((4-fluoro-3-(trifluoromethyl)phenyl)carbamoyl)-6-(trifluoromethyl)benzo[b]thiophen-3-yl)-2-methoxy-5-(2-oxa-6-azaspiro[3.3]heptane-6-carbonyl) nicotinamide], 701 nM.
The result for `COc1ccc(C2CCCN(C(=O)CO)C2)cc1C(=O)Nc1c(C(=O)Nc2ccc(F)c(C(F)(F)F)c2)sc2cc(C(F)(F)F)ccc12` (single isomer, unassigned) [Example 91, N-[4-fluoro-3-(trifluoromethyl)phenyl]-3-{5-[1-(2-hydroxyacetyl)piperidin-3-yl]-2-methoxy-benzamido}-6-(trifluoromethyl)-1-benzothiophene-2-carboxamide] reads 95.8 nM; that for “N-(4-fluoro-3- (trifluoromethyl) phenyl)-3-(4- methoxy-3′- (morpholino- sulfonyl)-[1,1′- biphenyl]-3- carboxamido)- 6- (trifluoromethyl) benzo[b] thiophene-2- carboxamide [Example 122]”, 41.8 nM.
On to `COC(=O)C(=O)N1CCCC(c2ccc(OC)c(C(=O)Nc3c(C(=O)Nc4ccc(F)c(C(F)(F)F)c4)sc4cc(C(F)(F)F)ccc34)c2)C1` (centres unmarked) [Example 94, methyl 2-(3-(3-((2-((4-fluoro-3-(trifluoromethyl)phenyl)carbamoyl)-6-(trifluoromethyl)benzo[b]thiophen-3-yl)carbamoyl)-4-methoxyphenyl)piperidin-1-yl)-2-oxoacetate], for which the midpoint of the response, the EC50, lay at 245 nM.
In turn, `COc1ccc(-c2ccc(F)c(C(=O)O)c2)cc1C(=O)Nc1c(C(=O)Nc2ccc(F)c(C(F)(F)F)c2)sc2cc(C(F)(F)F)ccc12` [Example 13, 4-fluoro-3′-((2-((4-fluoro-3-(trifluoromethyl)phenyl)carbamoyl)-6-(trifluoromethyl)benzo[b]thiophen-3-yl)carbamoyl)-4′-methoxy-[1, 1′-biphenyl]-3-carboxylic acid] returned an EC50 of 87 nM. Against the preceding compound, the EC50 is about 2.8-fold lower.
`COc1ccc(C2=NOC3CN(C(=O)CO)CC23)cc1C(=O)Nc1c(C(=O)Nc2ccc(F)c(C(F)(F)F)c2)sc2ccccc12` (single isomer, unassigned) [Example 248, N-[4-fluoro-3-(trifluoromethyl)phenyl]-3-{5-[5-(2-hydroxyacetyl) 3aH,4H,5H,6H, 6aH-pyrrolo[3,4-d][1,2]oxazol-3-yl]-2-methoxy-benzamido}-1-benzothiophene-2-carboxamide] had an EC50 of 545 nM.
The same measure for `COc1ccc(C2CC2C(=O)N2CC(S(C)(=O)=O)C2)cc1C(=O)Nc1c(C(=O)Nc2ccc(F)c(C(F)(F)F)c2)sc2cc(C(F)(F)F)ccc12` (single isomer, unassigned) [Example 168, N-[4-fluoro-3-(trifluoromethyl)phenyl]-3-{5-[2-(3-methane-sulfonylazetidine-1-carbonyl)cyclopropyl]-2-methoxy-benzamido}-6-(trifluoromethyl)-1-benzothiophene-2-carboxamide]: 176 nM.
For `COc1ccc(C2CC2C(=O)O)cc1C(=O)Nc1c(C(=O)Nc2ccc(F)c(C(F)(F)F)c2)sc2cc(C(F)(F)F)ccc12` (single isomer, unassigned) [Example 48, 2-(3-((2-((4-fluoro-3-(trifluoromethyl)phenyl)carbamoyl)-6-(trifluoromethyl)benzo[b]thiophen-3-yl)carbamoyl)-4-methoxyphenyl) cyclopropane-1-carboxylic acid], a half-maximal response (EC50) required 58.4 nM.
Regarding `COc1ccc(C(=O)N2CCC(O)CC2)cc1C(=O)Nc1c(C(=O)Nc2ccc(F)c(C(F)(F)F)c2)sc2cc(Cl)ncc12` [Example 241, 6-chloro-N-(4-fluoro-3-(trifluoromethyl)phenyl)-3-(5-(4-hydroxy-piperidine-1-carbonyl)-2-methoxy-benzamido) thieno[3,2-c]pyridine-2-carboxamide], the half-maximal effective concentration (EC50) stood at 3900 nM. This EC50 lies about 67-fold higher than the previous one.
The result for `COc1ccc(C2CCN(C(=O)C3(C)COC3)C2)cc1C(=O)Nc1c(C(=O)Nc2ccc(F)c(C(F)(F)F)c2)sc2cc(C(F)(F)F)ccc12` (centres unmarked) [Example 135, N-(4-fluoro-3-(trifluoromethyl)phenyl)-3-(2-methoxy-5-(1-(3-methyloxetane-3-carbonyl)pyrrolidin-3-yl)benzamido)-6-(trifluoromethyl) benzo[b] thiophene-2-carboxamide] reads 488 nM; that for `COc1ccc(C2CCCNCC2)cc1C(=O)Nc1c(C(=O)Nc2ccc(F)c(C(F)(F)F)c2)sc2cc(C(F)(F)F)ccc12` (centres unmarked) [Example 39, 3-(5-(azepan-4-yl)-2-methoxybenzamido)-N-(4-fluoro-3-(trifluoromethyl)phenyl)-6-(trifluoromethyl)benzo[b]thiophene-2-carboxamide], 2800 nM; that for `COc1ccc(C2CCC(O)CC2)cc1C(=O)Nc1c(C(=O)Nc2ccc(F)c(C(F)(F)F)c2)sc2cc(C(F)(F)F)ccc12` (single isomer, unassigned) [Example 76, N-(4-fluoro-3-(trifluoromethyl)phenyl)-3-(5-(4-hydroxycyclo-hexyl)-2-methoxy-benzamido)-6-(trifluoromethyl) benzo[b] thiophene-2-carboxamide], 498 nM.
The result for `COc1ccc(-c2noc(C(C)(C)O)n2)cc1C(=O)Nc1c(C(=O)Nc2ccc(F)c(C(F)(F)F)c2)sc2cc(C(F)(F)F)ccc12` [Example 59, N-(4-fluoro-3-(trifluoromethyl)phenyl)-3-(5-(5-(2-hydroxypropan-2-yl)-1,2,4-oxadiazol-3-yl)-2-methoxybenzamido)-6-(trifluoromethyl) benzo[b]thiophene-2-carboxamide] reads 216 nM.
